Legend:
PC3-PIP tumors = assay: Micro-SPECT/CT imaging of 177Lu-labeled ligands in PC3-PIP tumor model; format: in vivo; conditions: balb/c-nu mice, scans 1-168 h
Experimental: To perform imaging studies, the male mice bearing LNCaP tumors were injected with the corresponding radioligand (~ 2.5 MBq; 100 μL) via their tail veins. The micro-PET/CT scans (Inveon PET, Siemens) were conducted at 10, 30, 60, and 120 min after injection. The mice were anesthetized and maintained under 2% isoflurane in oxygen at a flow rate of 2 L/min during the 2-h imaging study. First, a 10 min static PET imaging acquisition was carried out, followed by a 10 min CT scan for localization and attenuation correction. Data analysis was performed using Inveon Research Workplace software. For PC3-PIP tumor model, the imaging studies were performed with micro-PET/SPECT/CT (Inliview-3000B, Novel Medical). Data analysis was performed using Nmsoft-Al ws v1.7–1 software.
Balb/c-nu mice carrying PC3-PIP tumors were chosen for the micro-SPECT/CT imaging investigation of [^177Lu]Lu-PP4-WD and [^177Lu]Lu-PP8-WD (see Additional file 1: Figure S8).

LNCaP cells = assay: Uptake and internalization in LNCaP cells; format: cell-based, human; conditions: 120 min incubation, normalized to 10^6 cells
Experimental: LNCaP prostate cancer cell line obtained from the American Type Culture Collection (ATCC, Manassas, VA) was used for cell affinity studies. […] The supernatant was disposed, and the cell pellet was resuspended in a culture medium, and LNCaP cells (150,000 cells/well) were counted with a hemocytometer and seeded in poly-L-lysine-coated 24-well plates used in cell binding studies. The cells were then allowed to grow at 37 °C for 48 h. PC3-PIP cells provided by Professor Xiaoyuan Chen (Singapore) require additional Puromycin (2 µg/ml) in addition to the appealed culture conditions.

PSMA = molecular target: T1, PSMA (Homo sapiens, UniProt Q04609); conditions: LNCaP cells, competition with [68Ga]Ga-PSMA-11; cited from earlier work
T1 construct: host or cells: LNCaP

[1] = set-up: method as in PMID 36696174; conditions: at 2 h; cited from earlier work
[2] = system: LNCaP tumor-bearing NOD/SCID mice; assay: Biodistribution in LNCaP tumor model; conditions: for Blood uptake / Bone uptake / Brain uptake / Heart uptake / Kidney uptake / Liver uptake / Lung uptake / Muscle uptake / Salivary uptake / Small int (small intestine) uptake / Spleen uptake / Stomach uptake / Tumor uptake: mean ± SD (n=5)

T1 sequence (Q04609 whole entry): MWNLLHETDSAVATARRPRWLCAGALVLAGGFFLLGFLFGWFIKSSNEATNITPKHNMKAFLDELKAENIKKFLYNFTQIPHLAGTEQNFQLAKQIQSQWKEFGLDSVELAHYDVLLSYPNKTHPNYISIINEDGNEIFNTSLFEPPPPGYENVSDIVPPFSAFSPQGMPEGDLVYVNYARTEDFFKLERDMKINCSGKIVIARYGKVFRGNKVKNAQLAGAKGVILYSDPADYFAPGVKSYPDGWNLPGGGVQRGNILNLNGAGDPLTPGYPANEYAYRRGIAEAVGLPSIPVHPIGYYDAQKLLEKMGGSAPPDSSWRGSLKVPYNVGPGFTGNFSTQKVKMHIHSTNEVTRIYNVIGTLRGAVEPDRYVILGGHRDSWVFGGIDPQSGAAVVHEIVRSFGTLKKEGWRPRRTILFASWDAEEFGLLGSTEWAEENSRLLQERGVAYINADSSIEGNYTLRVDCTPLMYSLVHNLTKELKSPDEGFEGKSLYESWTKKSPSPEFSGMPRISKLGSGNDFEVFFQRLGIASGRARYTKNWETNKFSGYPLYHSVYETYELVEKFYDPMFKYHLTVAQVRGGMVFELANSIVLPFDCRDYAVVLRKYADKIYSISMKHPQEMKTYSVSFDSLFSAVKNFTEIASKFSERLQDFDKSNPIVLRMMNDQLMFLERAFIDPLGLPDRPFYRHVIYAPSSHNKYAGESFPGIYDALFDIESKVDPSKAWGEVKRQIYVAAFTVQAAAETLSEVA

Q: With `O=C([O-])CN1CCN(CC(=O)[O-])CCN(CC(=O)NCCOCCOCCOCCOCCOCCOCCOCCOCCNC(=O)CN(CCCC[C@H](NC(=O)N[C@@H](CCC(=O)O)C(=O)O)C(=O)O)C(=O)C2c3ccccc3-c3ccccc32)CCN(CC(=O)[O-])CC1.[177Lu+3]` [[^177Lu]Lu-PP8-WD] as the compound, how does the “Tumor-to-background ratio in micro-SPECT/CT” value (PC3-PIP tumors) read?
A: The value was “favorable tumor-to-background ratio for up to 168 h”.

Q: Which results are given for `O=C([O-])CN1CCN(CC(=O)[O-])CCN(CC(=O)NCCCCCN(CCCC[C@H](NC(=O)N[C@@H](CCC(=O)O)C(=O)O)C(=O)O)C(=O)C2c3ccccc3-c3ccccc32)CCN(CC(=O)[O-])CC1.[68Ga+3]` [[^68Ga]Ga-Flu-1]?
A: Internalization in LNCaP cells (LNCaP cells): 21.3 ± 0.13%; Uptake in LNCaP cells (LNCaP cells): 34.57 ± 4.14%; IC50 (PSMA): 9.62 ± 1.7 nM; Kidney uptake, folds greater than that in the tumor [1]: 3 folds; Tumor/Blood ratio ([2]; 30 min): 5.94±1.41; Tumor/Heart ratio ([2]; 30 min): 17.48±3.23; Tumor/Kidney ratio ([2]; 30 min): 0.14±0.12; Tumor/Liver ratio ([2]; 30 min): 15.57±2.89; Tumor/Salivary ratio ([2]; 30 min): 5.63±1.11; Blood uptake ([2]; 30 min p.i.): 5.53±2.11 %ID/g; Bone uptake ([2]; 30 min p.i.): 0.66±0.22 %ID/g; Brain uptake ([2]; 30 min p.i.): 0.18±0.10 %ID/g; Heart uptake ([2]; 30 min p.i.): 1.88±0.46 %ID/g; Kidney uptake ([2]; 30 min p.i.): 240.00 ± 34.68 %ID/g; Liver uptake ([2]; 30 min p.i.): 2.11±0.52 %ID/g; Lung uptake ([2]; 30 min p.i.): 5.77±2.01 %ID/g; Muscle uptake ([2]; 30 min p.i.): 0.93±0.34 %ID/g; Salivary uptake ([2]; 30 min p.i.): 5.84±3.65 %ID/g; Small int (small intestine) uptake ([2]; 30 min p.i.): 2.52±0.60 %ID/g; Spleen uptake ([2]; 30 min p.i.): 9.45±5.92 %ID/g; Stomach uptake ([2]; 30 min p.i.): 1.84±0.31 %ID/g; Tumor uptake ([2]; 30 min p.i.): 32.86 ± 12.02 %ID/g; Tumor/Blood ratio ([2]; 60 min): 11.1±1.97; Tumor/Heart ratio ([2]; 60 min): 44.13±4.22; Tumor/Kidney ratio ([2]; 60 min): 0.22±0.21; Tumor/Liver ratio ([2]; 60 min): 33.17±3.09; Tumor/Salivary ratio ([2]; 60 min): 17.24±3.54; Blood uptake ([2]; 60 min p.i.): 4.69±2.33 %ID/g; Bone uptake ([2]; 60 min p.i.): 0.29±0.18 %ID/g; Brain uptake ([2]; 60 min p.i.): 0.11±0.10 %ID/g; Heart uptake ([2]; 60 min p.i.): 1.18±0.36 %ID/g; Kidney uptake ([2]; 60 min p.i.): 240.01±31.08 %ID/g; Liver uptake ([2]; 60 min p.i.): 1.57±0.60 %ID/g; Lung uptake ([2]; 60 min p.i.): 3.27±0.84 %ID/g; Muscle uptake ([2]; 60 min p.i.): 0.44±0.25 %ID/g; Salivary uptake ([2]; 60 min p.i.): 3.02±1.27 %ID/g; Small int (small intestine) uptake ([2]; 60 min p.i.): 1.89±1.10 %ID/g; Spleen uptake ([2]; 60 min p.i.): 7.25±3.39 %ID/g; Stomach uptake ([2]; 60 min p.i.): 0.86±0.11 %ID/g; Tumor uptake ([2]; 60 min p.i.): 52.07 ± 14.83 %ID/g; Tumor/Blood ratio ([2]; 120 min): 13.07±2.56; Tumor/Heart ratio ([2]; 120 min): 69.16±5.69; Tumor/Kidney ratio ([2]; 120 min): 0.31±0.21; Tumor/Liver ratio ([2]; 120 min): 37.14±3.65; Tumor/Salivary ratio ([2]; 120 min): 27.47±4.33; Blood uptake ([2]; 120 min p.i.): 3.07±2.7 %ID/g; Bone uptake ([2]; 120 min p.i.): 0.34±0.21 %ID/g; Brain uptake ([2]; 120 min p.i.): 0.06±0.04 %ID/g; Heart uptake ([2]; 120 min p.i.): 0.58±0.28 %ID/g; Kidney uptake ([2]; 120 min p.i.): 127.83 ± 27.94 %ID/g; Liver uptake ([2]; 120 min p.i.): 1.08±0.71 %ID/g; Lung uptake ([2]; 120 min p.i.): 1.23±0.47 %ID/g; Muscle uptake ([2]; 120 min p.i.): 0.19±0.08 %ID/g; Salivary uptake ([2]; 120 min p.i.): 1.46±1.05 %ID/g; Small int (small intestine) uptake ([2]; 120 min p.i.): 0.46±0.25 %ID/g; Spleen uptake ([2]; 120 min p.i.): 2.38±1.75 %ID/g; Stomach uptake ([2]; 120 min p.i.): 0.42±0.17 %ID/g; Tumor uptake ([2]; 120 min p.i.): 40.11 ± 9.24 %ID/g

Reference: article PMC10850047, “Exploring the impact of PEGylation on pharmacokinetics: a size-dependent effect of polyethylene glycol on prostate-specific membrane antigen inhibitors” (EJNMMI Research, 2024)
